Results taken from patent US6875750B1, “Aziridine compounds and methods of making and using them” (Max-Planck-Gesellschaft zur Foerderung der Wissenschaften …, priority 1998, dated 2005).

Assays:
[1] = target: T1, N6-adenine DNA methyltransferase M•TaqI (Thermus aquaticus, UniProt P14385); assay: Enzyme reaction: M•TaqI-catalyzed coupling of cofactor with duplex oligodeoxynucleotide 3•4, followed by anion exchange chromatography; assay type: biochemical; details: duplex 3•4 10 μM, M•TaqI 10 μM, pH 6.0, 37°C
T1 construct: made in house
T1 sequence (P14385 whole entry): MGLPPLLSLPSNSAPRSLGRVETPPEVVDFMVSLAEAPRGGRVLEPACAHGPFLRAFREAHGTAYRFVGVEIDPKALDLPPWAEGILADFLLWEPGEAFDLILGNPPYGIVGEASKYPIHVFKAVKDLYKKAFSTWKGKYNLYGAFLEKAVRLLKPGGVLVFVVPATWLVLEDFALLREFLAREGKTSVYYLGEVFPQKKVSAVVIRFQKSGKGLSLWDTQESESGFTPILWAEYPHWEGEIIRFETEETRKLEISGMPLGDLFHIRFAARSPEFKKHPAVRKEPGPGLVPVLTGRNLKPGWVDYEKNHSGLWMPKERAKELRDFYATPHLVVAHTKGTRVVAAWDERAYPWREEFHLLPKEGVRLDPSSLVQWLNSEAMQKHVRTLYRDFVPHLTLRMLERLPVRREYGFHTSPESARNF
Method: The DNA methyltransferase M•TaqI free of cofactor was prepared as described before (B. Holz, S. Klimasauskas, S. Serva, E. Weinhold, Nucleic Acids Res. 1998, 26, 1076-1083). The enzyme-catalyzed reaction was carried out in a mixture (500 μl) of M•TaqI (5 nmol, 10 μM), duplex oligodeoxynucleotide 3.4 (5 nmol, 10 μM), compound 2 (500 nmol, 1 mM), Tris acetate (20 mM, pH 6,0), potassium acetate (50 mM), magnesium acetate (10 mM) and Triton X-100 (0.01%) at 37°C. The progress of the reaction was monitored by anion exchange chromatography. Aliquots (50 μl) of the reaction mixture were withdrawn after different incubation times, mixed with an urea solution (100 μl, 6 M) and injected onto an anion exchange column (Poros 10 HQ, 10 μm, 4.6×100 mm, PerSeptive Biosystems, Germany). Compounds were eluted with aqueous potassium chloride (0.5 M for 5 min, followed by a linear gradient to 1 M in 30 min, 4 ml/min) in Tris chloride buffer (10 mM, pH 7.6).
The enzyme-catalyzed reaction was carried out in a mixture (500 μl) of cofactor free M-Taql (5 nmol, 10 μM), duplex oligodeoxynucleotide 3•4 (5 nmol, 10 μM), compound 9 (10 nmol, 20 μM), Tris acetate (20 mM, pH 6.0), potassium acetate (50 mM), magnesium acetate (10 mM) and Triton X-100 (0,01%) at 37° C. The progress of the reaction was monitored by anion exchange chromatography (Poros 10 HQ, 10 μm, 4,6×10 mm, PerSeptive Biosystems, Germany). Compounds were eluted with aqueous potassium chloride (0.2 M for 5 min, followed by a linear gradient to 0.5 M in 5 min and to 1 M in 30 min) in Tris chloride buffer (10 mM, pH 7.0). Complete conversion to a new product (containing DNA and protein) with a retention time of 7.9 min was observed after 15 h. […] Then, a solution (4 μl) of proteinase K (31 mg/ml), Tris chloride (50 mM, pH 8.0) and calcium chloride (1 mM) was added, and the reaction mixture was incubated at 37° C. for 1 h. The proteolytic fragmentation was monitored by anion exchange chromatography as described above. […]

[2] = target: T2, C5-cytosine DNA methyltransferase M•HhaI (Haemophilus parahaemolyticus, UniProt P05102); assay: Enzyme reaction: M•HhaI-catalyzed coupling of cofactor with duplex oligodeoxynucleotide 6•7, followed by anion exchange chromatography; assay type: biochemical, Haemophilus haemolyticus; details: duplex 6•7 10 μM, M•HhaI 10 μM, compound 2 1 mM, pH 7.4, 25°C
T2 construct: made in house
T2 sequence (P05102 1-327): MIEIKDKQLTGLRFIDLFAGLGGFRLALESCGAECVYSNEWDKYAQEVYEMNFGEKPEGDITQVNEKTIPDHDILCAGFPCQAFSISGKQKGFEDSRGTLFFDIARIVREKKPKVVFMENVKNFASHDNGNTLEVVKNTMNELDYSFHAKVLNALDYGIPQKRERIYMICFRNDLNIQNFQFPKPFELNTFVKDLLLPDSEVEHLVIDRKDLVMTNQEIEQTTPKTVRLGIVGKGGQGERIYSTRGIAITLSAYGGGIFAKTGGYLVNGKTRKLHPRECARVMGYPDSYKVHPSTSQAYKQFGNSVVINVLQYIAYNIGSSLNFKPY
Method: The DNA methyltransferase M•HhaI free of cofactor was prepared as described before (B. Holz, S. Klimasauskas, S. Serva, E. Weinhold, Nucleic Acids Res. 1998, 26, 1076-1083). The enzyme-catalyzed reaction was carried out in a mixture (500 μl) of M•HhaI (5 nmol, 10 μM), duplex oligodeoxynucleotide 6•7 (5 nmol, 10 μM), compound 2 (500 nmol, 1 mM), Tris chloride (10 mM, pH 7.4), sodium chloride (50 mM), EDTA (0,5 mM) and Triton X-100 (0.01%) at 25° C. The progress of the reaction was monitored by anion exchange chromatography. Aliquots (50 μl) of the reaction mixture were withdrawn after different incubation times, and injected onto an anion exchange column (Poros 10 HQ, 10 μm, 4.6×100 mm, PerSeptive Biosystems, Germany). Compounds were eluted with aqueous potassium chloride (0 M for 5 min, followed by a linear gradient to 0.5 M in 5 min and to 1 M in 30 min, 4 ml/min) in Tris chloride buffer (20 mM, pH. 7.6).

[3] = target: T1, N6-adenine DNA methyltransferase M•TaqI; assay: Fluorescent labeling of plasmid DNA (pUC19) using M•TaqI; assay type: biochemical; details: M•TaqI 133 nM, pUC19 28 nM, compound 9 20 μM
Method: The enzyme-catalyzed labeling reaction was carried out in a mixture (500 μl) of cofactor free M•TaqI (133 nM), pUC19 DNA (28 nM, 4 recognition sites for M•TaqI), compound 9 (20 μM), Tris acetate (20 mM, pH 6,0), potassium acetate (50 mM), magnesium, acetate (10 mM) and Triton X-100 (0,01%) at 65° C. The progress of the reaction was monitored by anion exchange chromatography (NUCLEOGEN DEAE 4000-7, 7 μm, 125×6,2 mm, Machery-Nagel, Düren, Germany). Compounds were eluted with aqueous potassium chloride (0.2 M for 5 min followed by a linear gradient to 1 M in 30 min) in Tris chloride buffer (10 mM, pH 7.0) containing acetonitrile (20%). The chromatograms of the anion exchange chromatography after different incubation times are shown in FIG. 6 (A: UV detection at 260 nm; B: fluorescence detection). The delay between the observed UV absorption and the fluorescence is due to a spatial separation of the UV detector and the fluorescence detector. The labeling reaction yielding fluorescent pUC19 was completed after 8 h.

[4] = target: T2, C5-cytosine DNA methyltransferase M•HhaI; assay: Fluorescent labeling of plasmid DNA (pUC19) using M•HhaI; assay type: biochemical, Haemophilus haemolyticus; details: M•HhaI 730 nM, pUC19 40 nM, compound 9 20 μM, pH 6.85, 37°C, 20 h
Method: The enzyme-catalyzed labeling reaction was carried out in a mixture (100 μl) of M-HhaI (730 nM), pUC19 DNA (40 nM, 17 recognition sites for M•HhaI), compound 9 (20 μM), Tris chloride (10 mM, pH 6.85), sodium chloride (50 mM), EDTA (0,5 mM) and P-mercaptoethanol (2 mM) at 37° C. A parallel control experiment was performed without M•HhaI. Aliquots of both incubations after 20 h reaction time were analyzed by anion exchange chromatography as described above (see example 2, 3.1). The obtained chromatograms are shown in FIG. 8 (A: UV detection at 260 nm; B: fluorescence detection).

SMILES	M•TaqI-catalyzed coupling of the cofactor with DNA ([1]; compound 2 1 mM)	M•HhaI-catalyzed coupling of the cofactor to duplex oligodeoxynucleotide 6•7 [2]	fluorescence signal of pUC19 in anion exchange chromatography after labeling with M•TaqI ([3]; 65°C, different incubation times)	time to completion of the labeling reaction yielding fluorescent pUC19 ([3]; pH 6.0, 65°C) [h]	coupling reaction of the fluorescent cofactor with DNA catalyzed by M•TaqI ([1]; compound 9 20 μM)	time to complete conversion of duplex 3•4 to new product (containing DNA and protein) ([1]; compound 9 20 μM) [h]	cofactor function in M•HhaI-catalyzed fluorescent labeling of pUC19 [4]
Nc1ncnc2c1ncn2[C@@H]1O[C@H](CN2CC2)[C@@H](O)[C@H]1O [Compound 2, N-Adenosylaziridine]	quantitative, sequence- and base-specific	quantitative					
CN(C)c1cccc2c(S(=O)(=O)NCCCCNc3nc4c(N)ncnc4n3[C@@H]3O[C@H](CN4CC4)C(O)[C@@H]3O)cccc12 (stereo partly shown) [Compound 9, 8-Amino[1″-(N″-dansyl)-4″-aminobutyl]-5′-(1-aziridinyl)-5′-deoxy adenosine]			increase of the fluorescence signal with the incubation time	8	quantitative and base-specific	15	function as a cofactor for M•HhaI
